Measured values: PubChem BioAssay AID2060504 (Molecular Pharmacology Branch, DTP, NCI, 2025)
pIC50: −log10 of the molar value. “And” between values parts separate entries of the source, which are not always exact repeats. Equal values may be shown once.

Tested on: 636577-100-R-J1-PDC complex spheroid viability
Test: Anticancer human tumor 636577-100-R-J1-PDC patient-derived endometrial adenocarcinoma cell line growth inhibition [GQUAD]
Conditions: for viability, T/C: stronger effect = lower value
Description: DNA G-quadruplex Stabilizer Agents in Combinations in Complex Spheroids
A high-throughput screen of multi-cell type tumor spheroids was designed to identify active combinations of DNA G-quadruplex stabilizer agents and targeted small molecules. Complex spheroids include a stromal component modeled by human endothelial cells (HUVEC) and fibroblasts modeled by human mesenchymal stem cells (MSCs). The concentration ranges selected for each drug and investigational agent were based upon clinically achievable concentrations if the clinical Cmax of the agent was known.
Compounds. The drugs and investigational agents: pidnarulex (CX-5461; NSC782164), APTO-253 (NSC789042), BRACO-19 (NSC847499), peposertib (NSC802822), ceralasertib (NSC780249), elimusertib (NSC800525), camonsertib (NSC841442), AZD-1390 (NSC803789), olaparib (NSC753686), talazoparib (NSC767125), ART-558 (NSC835418), sotorasib (NSC818433), MRTX-1133 (NSC836407), SN-38 (NSC673596), topotecan (NSC609699), etoposide (NSC141540), doxorubicin (NSC123127), gemcitabine (NSC613327), 5-fluorouracil (NSC19893), paclitaxel (NSC125973), vemurafenib (NSC761431), panobinostat (NSC761190), R-306465 (JNJ-16241199; NSC773264), adavosertib (NSC754352), TP-3654 (NSC805149), carboplatin (NSC241240), KSQ-4279 (NSC840948), and staurosporine (NSC755774) were obtained from the National Cancer Institute (NCI) Developmental Therapeutics Program Chemical Repository (34). The FDA-approved anticancer drug set is available from the NCI Developmental Therapeutics Program. […] The stock solutions were prepared in dimethyl sulfoxide (DMSO, Sigma-Aldrich, St. Louis, MO, cat. D2650) at 800-fold the tested concentration and stored at -70 degrees C prior to their use. All drugs and investigational agents were tested over a range starting from a high concentration at or near the clinical Cmax and decreasing in half-log increments. If the clinical Cmax for an agent had not been determined, the highest concentration tested was 10 microM.
2.3 Cell Culture. All cells were maintained in an incubator at 37 degrees C and 5% CO2 with 95% humidity. The PDC lines were cultured according to standard operating procedures established by the NCI PDMR. All PDCs were thawed and cultured in Matrigel-coated flasks prepared with a working solution of 1X Ham's F-12 nutrient mix, without supplementation (Invitrogen, cat. 11765054), 100 U/mL penicillin-streptomycin (Invitrogen, cat. 15140122), and 2.5% Matrigel (Corning Inc., cat. 354248) for the first three passages. The 857933-349-R-J2-PDC line was cultured in 6C/Colon 1B media, which includes advanced DMEM/F-12 (Thermo Fisher Scientific, cat. 12634028), 10 mM HEPES (Thermo Fisher Scientific, cat. 15630080), 1X GlutaMAX supplement (Thermo Fisher Scientific, cat. 35050061), 0.1 mg/mL primocin (InvivoGen, cat. ant-pm-2), 10% defined fetal bovine serum, heat inactivated (HyClone Laboratories Inc., cat. SH30070.03HI), 50% L-WRN conditioned media (ATCC, cat. CRL-3276), 1.25 mM N-Acetyl-L-cysteine (Sigma-Aldrich, cat. A9165), 10 mM nicotinamide (Sigma-Aldrich, cat. N0636), 1X B-27 supplement (Thermo Fisher Scientific, cat. 17504044), 1X N-2 supplement (Thermo Fisher Scientific, cat. 17502048), 10 microM Y-27632 dihydrochloride (Tocris Bioscience, cat. 1254), and 50 ng/mL human EGF recombinant protein (Thermo Fisher Scientific, cat. PHG0311). The 485176-168-R4-J1-PDC line was cultured in Panc media, which includes all 6C/Colon 1B media components plus 100 ng/mL human FGF-10 (Thermo Fisher Scientific, cat. 100-26), 500 nM SB-431542 (Selleckchem, cat. S1067), and gastrin (Tocris, cat. 3006).
[…]

[1] = curve of first compound, second compound 0.0316 µM
[2] = curve of first compound, second compound 0.1 µM
[3] = curve of first compound, second compound 0.316 µM
[4] = curve of first compound, second compound 1 µM
[5] = curve of first compound, second compound 3.16 µM
[6] = curve of first compound, second compound 10 µM
[7] = second compound 0.0316 µM, first compound 0.0316 µM
[8] = second compound 0.0316 µM, first compound 0.316 µM
[9] = second compound 0.1 µM, first compound 0.0316 µM
[10] = second compound 0.1 µM, first compound 0.316 µM
[11] = second compound 0.316 µM, first compound 0.0316 µM
[12] = second compound 0.316 µM, first compound 0.316 µM
[13] = second compound 1 µM, first compound 0.0316 µM
[14] = second compound 1 µM, first compound 0.316 µM
[15] = second compound 3.16 µM, first compound 0.0316 µM
[16] = second compound 3.16 µM, first compound 0.316 µM
[17] = second compound 10 µM, first compound 0.0316 µM
[18] = second compound 10 µM, first compound 0.316 µM
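Also: viability read after seven days of drug exposure.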
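For viability, T/C in this document: luminescence signal used as a proxy for viable cells; 100% = DMSO vehicle control wells.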

CC1COCCN1c1cc(C2(S(C)(=N)=O)CC2)nc(-c2ccnc3[nH]ccc23)n1 (stereo not drawn)
viability, T/C (compound 0.0316 µM): 90.3% and 97.2% and 58.2% | viability, T/C (compound 0.1 µM): 91.5% and 90.5% and 90.6% | viability, T/C (compound 0.316 µM): 93% and 90.3% and 73.6% | viability, T/C (compound 1 µM): 50.8% and 49.6% and 41.9% | viability, T/C (compound 3.16 µM): 22.6% and 22.4% and 54.3% | viability, T/C (compound 10 µM): 14.2% and 12.7% and 14.7% | pIC50 (curve of compound): 5.98 and 5.66

CCc1c2c(nc3ccc(O)cc13)-c1cc3c(c(=O)n1C2)COC(=O)[C@]3(O)CC
viability, T/C (compound 0.000999 µM): 46.6% | viability, T/C (compound 0.00316 µM): 22.1% | viability, T/C (compound 0.00999 µM): 23.3% | viability, T/C (compound 0.0316 µM): 22.9% | viability, T/C (compound 0.0999 µM): 19.6% | viability, T/C (compound 0.316 µM): 10.7% | pIC50 (curve of compound): > 9.00

CCc1c2c(nc3ccc(O)cc13)-c1cc3c(c(=O)n1C2)COC(=O)[C@]3(O)CC + CN(C)c1ccc(Nc2c3ccc(NC(=O)CCN4CCCC4)cc3nc3cc(NC(=O)CCN4CCCC4)ccc23)cc1
pIC50 [1]: > 9.00 | pIC50 [2]: > 9.00 | pIC50 [3]: > 9.00 | pIC50 [4]: > 9.00 | pIC50 [5]: > 9.00 | pIC50 [6]: > 9.00 | viability, T/C (second compound 0.0316 µM, first compound 0.000999 µM): 46.8% | viability, T/C (second compound 0.0316 µM, first compound 0.00316 µM): 23.4% | viability, T/C (second compound 0.0316 µM, first compound 0.00999 µM): 26% | viability, T/C [7]: 16.6% | viability, T/C (second compound 0.0316 µM, first compound 0.0999 µM): 17.7% | viability, T/C [8]: 12.4% | viability, T/C (second compound 0.1 µM, first compound 0.000999 µM): 43.7% | viability, T/C (second compound 0.1 µM, first compound 0.00316 µM): 21.6% | viability, T/C (second compound 0.1 µM, first compound 0.00999 µM): 22.2% | viability, T/C [9]: 18.1% | viability, T/C (second compound 0.1 µM, first compound 0.0999 µM): 17% | viability, T/C [10]: 12.9% | viability, T/C (second compound 0.316 µM, first compound 0.000999 µM): 41.9% | viability, T/C (second compound 0.316 µM, first compound 0.00316 µM): 23.1% | viability, T/C (second compound 0.316 µM, first compound 0.00999 µM): 20.3% | viability, T/C [11]: 21.1% | viability, T/C (second compound 0.316 µM, first compound 0.0999 µM): 19.2% | viability, T/C [12]: 13.2% | viability, T/C (second compound 1 µM, first compound 0.000999 µM): 39.4% | viability, T/C (second compound 1 µM, first compound 0.00316 µM): 21.4% | viability, T/C (second compound 1 µM, first compound 0.00999 µM): 24.2% | viability, T/C [13]: 22.6% | viability, T/C (second compound 1 µM, first compound 0.0999 µM): 19.4% | viability, T/C [14]: 13.4% | viability, T/C (second compound 3.16 µM, first compound 0.000999 µM): 29.8% | viability, T/C (second compound 3.16 µM, first compound 0.00316 µM): 22% | viability, T/C (second compound 3.16 µM, first compound 0.00999 µM): 19.5% | viability, T/C [15]: 18.4% | viability, T/C (second compound 3.16 µM, first compound 0.0999 µM): 16.8% | viability, T/C [16]: 9.28% | viability, T/C (second compound 10 µM, first compound 0.000999 µM): 4.84% | viability, T/C (second compound 10 µM, first compound 0.00316 µM): 4.42% | viability, T/C (second compound 10 µM, first compound 0.00999 µM): 4.45% | viability, T/C [17]: 4.23% | viability, T/C (second compound 10 µM, first compound 0.0999 µM): 4.1% | viability, T/C [18]: 2.29%

COc1cc(C2c3cc4c(cc3C(OC3OC5COC(C)OC5C(O)C3O)C3COC(=O)C23)OCO4)cc(OC)c1O (stereo not drawn) + Cc1cnc(CNC(=O)c2c(=O)c3ccc(N4CCCN(C)CC4)nc3n3c2sc2ccccc23)cn1
pIC50 [1]: > 7.50 | pIC50 [2]: > 7.50 | pIC50 [3]: > 7.50 | pIC50 [4]: > 7.50 | pIC50 [5]: > 7.50 | pIC50 [6]: > 7.50 | viability, T/C [7]: 28.9% | viability, T/C (second compound 0.0316 µM, first compound 0.1 µM): 21.4% | viability, T/C [8]: 18.5% | viability, T/C (second compound 0.0316 µM, first compound 1 µM): 14.2% | viability, T/C (second compound 0.0316 µM, first compound 3.16 µM): 13.7% | viability, T/C (second compound 0.0316 µM, first compound 10 µM): 10.5% | viability, T/C [9]: 25.8% | viability, T/C (second compound 0.1 µM, first compound 0.1 µM): 22.7% | viability, T/C [10]: 18.6% | viability, T/C (second compound 0.1 µM, first compound 1 µM): 13.6% | viability, T/C (second compound 0.1 µM, first compound 3.16 µM): 16.5% | viability, T/C (second compound 0.1 µM, first compound 10 µM): 12.9% | viability, T/C [11]: 22.2% | viability, T/C (second compound 0.316 µM, first compound 0.1 µM): 21.3% | viability, T/C [12]: 17.8% | viability, T/C (second compound 0.316 µM, first compound 1 µM): 16.4% | viability, T/C (second compound 0.316 µM, first compound 3.16 µM): 17% | viability, T/C (second compound 0.316 µM, first compound 10 µM): 13.2% | viability, T/C [13]: 21.5% | viability, T/C (second compound 1 µM, first compound 0.1 µM): 19.1% | viability, T/C [14]: 17.6% | viability, T/C (second compound 1 µM, first compound 1 µM): 18.9% | viability, T/C (second compound 1 µM, first compound 3.16 µM): 17.8% | viability, T/C (second compound 1 µM, first compound 10 µM): 12.5% | viability, T/C [15]: 19.3% | viability, T/C (second compound 3.16 µM, first compound 0.1 µM): 16.4% | viability, T/C [16]: 19.6% | viability, T/C (second compound 3.16 µM, first compound 1 µM): 19.2% | viability, T/C (second compound 3.16 µM, first compound 3.16 µM): 18.2% | viability, T/C (second compound 3.16 µM, first compound 10 µM): 13.4% | viability, T/C [17]: 17.8% | viability, T/C (second compound 10 µM, first compound 0.1 µM): 18.5% | viability, T/C [18]: 19.4% | viability, T/C (second compound 10 µM, first compound 1 µM): 19.2% | viability, T/C (second compound 10 µM, first compound 3.16 µM): 17.7% | viability, T/C (second compound 10 µM, first compound 10 µM): 12.3%
